According to PubChem BioAssay AID624112 (National Center for Advancing Translational Sciences (NCATS), 2012):

Tested on: Aqueous solubility in PBS, percent remaining
Experiment: qHTS Assay for Inhibitors of Bacillus subtilis Sfp phosphopantetheinyl transferase (PPTase): Aqueous Solubility in PBS
Details: active compounds read high
Excerpt: The covalent attachment of a phosphopantetheinyl (4'-PP) arm to a variety of synthases and other proteins is a key posttranslational protein modification. The 4'-PP is installed on the proteins post-translationally from coenzyme A (CoA) on a conserved serine residue by action of phosphopantetheinyl transferase (PPTase) enzymes. Phosphopantetheinylation is essential for synthase activity, and removal of the PPTase gene precludes natural product synthesis in microorganisms, or in the case of fatty acid biosynthesis, renders the organism unviable. PPTase enzymes belong to a distinct structural superfamily. Within bacteria, these enzymes are grouped into two classes based upon primary structure, the AcpS-Type and Sfp-Type PPTases.
Sfp-type PPTases, corresponding to an activator of surfactin production in Bacillus subtilis, are responsible for modifying type I polyketide and nonribosomal peptide synthases of prokaryotes. Sfp-type PPTases are responsible for the activation of a variety of pathogen-associated virulence factors. […]
2microM of compound is incubated in PBS buffer at pH 7; the reference compound is procaine. Compounds are incubated at 37 deg C for the pre-determined time periods and the when aliquots are removed. Samples are analyzed with LC-MS/MS.

`COc1ccnc(NC(=S)N2CCN(c3ncc(C(F)(F)F)cc3Cl)CC2)c1` gave a solubility, percent remaining of 100%.
